In US6914045B2, “Glycopeptide antibiotics” (Wyeth Holdings Corporation, priority 2001, dated 2005):
≈ marks a conversion by molar mass, not a printed value.

What was measured:
Escherichia coli = test: in vitro antibacterial evaluation, MIC by broth dilution; format: cell-based; details: 18 hours at 35° C.
Summary of the method: (§1)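 Broth dilution per NCCLS M7-A2 in Mueller-Hinton II medium, inoculum 5×10^5 CFU/mL, antibiotic range 64-0.06 μg/mL. MIC taken as lowest concentration inhibiting growth; Gram-positive panel includes recent clinical isolates resistant to methicillin, penicillin and/or vancomycin.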

Enterococcus sp. = test: as above; format: cell-based; details: broth dilution, 18 hours at 35° C.
Summary of the method: as §1

Streptococcus sp. = test: as above; format: cell-based; details: broth dilution, 18 hours at 35° C.
Summary of the method: as §1

Staphylococcus sp. = test: as above; format: cell-based; details: broth dilution, 18 hours at 35° C.
Summary of the method: as §1

[1] = tested on: Enterococcus faecalis (GC 6189); test: acute lethal infection in mice; format: in vivo; details: female CD-1 mice, intraperitoneal challenge, intravenous 30 min. after infection, 7 day survival
Summary of the method: (§2)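 Mice (female CD-1, 20+/−2 gm) receive bacteria ip in broth or hog gastric mucin, then test agent iv after 30 min. Median effective dose is calculated from 7 day survival pooled across 3 tests.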

[2] = tested on: Staphylococcus aureus-SMITH (GC 4543); test: acute lethal infection in mice; format: in vivo; details: acute lethal infection, female CD-1 mice, intraperitoneal challenge, intravenous 30 min. after infection, 7 day survival
Summary of the method: as §2

CC(c1ccccc1)C1NC(=O)CNC(=O)C(CO)NC(=O)C(C(O)C2CNC(=N)N2C2OC(CO)C(O)C(O)C2O)NC(=O)C(C(O)C2CNC(=N)N2)NC(=O)C(Cc2ccc(OC3OC(CO)C(OC4OC5COC(CC6CCN(C(=O)OCc7ccccc7)CC6)OC5C(O)C4O)C(O)C3O)cc2)NC1=O (stereo not drawn) [Example 113, Cyclo[glycyl-β-methylphenylalanyl-O-[4-O-[4,6-O-[2-[1-[(phenylmethoxy)carbonyl]piperidin-4-yl]ethylidene]hexopyranosyl]hexopyranosyl]tyrosyl-3-(2-iminoimidazolidin-4-yl)seryl-3-(3-hexopyranosyl-2-iminoimidazolidin-4-yl)serylseryl]] was tested, and the “MIC Escherichia coli (ATCC 25922)” value (Escherichia coli; strain ATCC 25922) was 32 µg/mL (≈ 20.8 µM), the “MIC Escherichia coli (GC 4559)” value (Escherichia coli; strain GC 4559) was 32 µg/mL (≈ 20.8 µM) and the “MIC Escherichia coli (GC 4560)” value (Escherichia coli; strain GC 4560) was 1 µg/mL (≈ 0.65 µM). For the same compound, the “MIC Enterococcus avium (GC 4558)” value (Enterococcus sp.; Enterococcus avium (GC 4558)) was 2 µg/mL (≈ 1.3 µM), the “MIC Enterococcus faecalis (ATCC 29212)” value (Enterococcus sp.; Enterococcus faecalis (ATCC 29212)) was 2 µg/mL (≈ 1.3 µM) and the “MIC Enterococcus faecalis (GC 2242)” value (Enterococcus sp.; Enterococcus faecalis (GC 2242)) was 4 µg/mL (≈ 2.6 µM). The “MIC Enterococcus faecalis (GC 2691)” value (Enterococcus sp.; Enterococcus faecalis (GC 2691)) was 4 µg/mL (≈ 2.6 µM), the “MIC Enterococcus faecalis (GC 3059)” value (Enterococcus sp.; Enterococcus faecalis (GC 3059)) was 2 µg/mL (≈ 1.3 µM) and the “MIC Enterococcus faecalis (GC 4552)” value (Enterococcus sp.; Enterococcus faecalis (GC 4552)) was 2 µg/mL (≈ 1.3 µM). The “MIC Enterococcus faecalis (GC 4553)” value (Enterococcus sp.; Enterococcus faecalis (GC 4553)) was 2 µg/mL (≈ 1.3 µM), the “MIC Enterococcus faecalis (GC 4554)” value (Enterococcus sp.; Enterococcus faecalis (GC 4554)) was 2 µg/mL (≈ 1.3 µM) and the “MIC Enterococcus faecalis (GC 6189)” value (Enterococcus sp.; Enterococcus faecalis (GC 6189)) was 2 µg/mL (≈ 1.3 µM). For the same compound, the “MIC Enterococcus faecium (GC 2243)” value (Enterococcus sp.; Enterococcus faecium (GC 2243)) was 2 µg/mL (≈ 1.3 µM), the “MIC Enterococcus faecium (GC 4556)” value (Enterococcus sp.; Enterococcus faecium (GC 4556)) was 2 µg/mL (≈ 1.3 µM) and the “MIC Enterococcus faecium (GC 4557)” value (Enterococcus sp.; Enterococcus faecium (GC 4557)) was 2 µg/mL (≈ 1.3 µM). For the same compound, the “MIC Enterococcus faecalis (ATCC 29212)” value (Enterococcus sp.; strain ATCC 29212) was 2 µg/mL (≈ 1.3 µM), the “MIC Enterococcus faecalis (GC 2242)” value (Enterococcus sp.; strain GC 2242) was 4 µg/mL (≈ 2.6 µM) and the “MIC Enterococcus faecium (GC 2243)” value (Enterococcus sp.; strain GC 2243) was 2 µg/mL (≈ 1.3 µM). For the same compound, the “MIC Enterococcus faecalis (GC 2691)” value (Enterococcus sp.; strain GC 2691) was 4 µg/mL (≈ 2.6 µM), the “MIC Enterococcus faecalis (GC 3059)” value (Enterococcus sp.; strain GC 3059) was 2 µg/mL (≈ 1.3 µM) and the “MIC Enterococcus faecalis (GC 4552)” value (Enterococcus sp.; strain GC 4552) was 2 µg/mL (≈ 1.3 µM). For the same compound, the “MIC Enterococcus faecalis (GC 4553)” value (Enterococcus sp.; strain GC 4553) was 2 µg/mL (≈ 1.3 µM), the “MIC Enterococcus faecalis (GC 4554)” value (Enterococcus sp.; strain GC 4554) was 2 µg/mL (≈ 1.3 µM) and the “MIC Enterococcus faecium (GC 4556)” value (Enterococcus sp.; strain GC 4556) was 2 µg/mL (≈ 1.3 µM). The “MIC Enterococcus faecium (GC 4557)” value (Enterococcus sp.; strain GC 4557) was 2 µg/mL (≈ 1.3 µM), the “MIC Enterococcus avium (GC 4558)” value (Enterococcus sp.; strain GC 4558) was 2 µg/mL (≈ 1.3 µM) and the “MIC Enterococcus faecalis (GC 6189)” value (Enterococcus sp.; strain GC 6189) was 2 µg/mL (≈ 1.3 µM). The “MIC Streptococcus agalactiae (GC 4564)” value (Streptococcus sp.; Streptococcus agalactiae (GC 4564)) was 0.12 µg/mL (≈ 0.078 µM), the “MIC Streptococcus pneumoniae (ATCC 6301)” value (Streptococcus sp.; Streptococcus pneumoniae (ATCC 6301)) was <0.06 µg/mL and the “MIC Streptococcus pneumoniae (GC 1894)” value (Streptococcus sp.; Streptococcus pneumoniae (GC 1894)) was <0.06 µg/mL. The “MIC Streptococcus pneumoniae (GC 4565)” value (Streptococcus sp.; Streptococcus pneumoniae (GC 4565)) was <0.06 µg/mL, the “MIC Streptococcus pyogenes (GC 4563)” value (Streptococcus sp.; Streptococcus pyogenes (GC 4563)) was <0.06 µg/mL and the “MIC Streptococcus pneumoniae (ATCC 6301)” value (Streptococcus sp.; strain ATCC 6301) was <0.06 µg/mL. The “MIC Streptococcus pneumoniae (GC 1894)” value (Streptococcus sp.; strain GC 1894) was <0.06 µg/mL, the “MIC Streptococcus pyogenes (GC 4563)” value (Streptococcus sp.; strain GC 4563) was <0.06 µg/mL and the “MIC Streptococcus agalactiae (GC 4564)” value (Streptococcus sp.; strain GC 4564) was 0.12 µg/mL (≈ 0.078 µM). The “MIC Streptococcus pneumoniae (GC 4565)” value (Streptococcus sp.; strain GC 4565) was <0.06 µg/mL, the “MIC Coagulase Negative Staphylococcus (GC 4547)” value (Staphylococcus sp.) was 1 µg/mL (≈ 0.65 µM) and the “MIC Coagulase Negative Staphylococcus (GC 4548)” value (Staphylococcus sp.) was 0.5 µg/mL (≈ 0.325 µM). The “MIC Coagulase Negative Staphylococcus (GC 4549)” value (Staphylococcus sp.) was 1 µg/mL (≈ 0.65 µM), the “MIC Coagulase Negative Staphylococcus (GC 4551)” value (Staphylococcus sp.) was 1 µg/mL (≈ 0.65 µM) and the “MIC Coagulase Negative Staphylococcus (GC 6257)” value (Staphylococcus sp.) was 0.5 µg/mL (≈ 0.325 µM). For the same compound, the “MIC Staphylococcus aureus (ATCC 29213)” value (Staphylococcus sp.) was 1 µg/mL (≈ 0.65 µM), the “MIC Staphylococcus aureus (GC 1131)” value (Staphylococcus sp.) was 2 µg/mL (≈ 1.3 µM) and the “MIC Staphylococcus aureus (GC 3051)” value (Staphylococcus sp.) was 1 µg/mL (≈ 0.65 µM). The “MIC Staphylococcus aureus (GC 3053)” value (Staphylococcus sp.) was 1 µg/mL (≈ 0.65 µM), the “MIC Staphylococcus aureus (GC 4541)” value (Staphylococcus sp.) was 1 µg/mL (≈ 0.65 µM) and the “MIC Staphylococcus aureus (GC 4542)” value (Staphylococcus sp.) was 1 µg/mL (≈ 0.65 µM). The “MIC Staphylococcus aureus (GC 4544)” value (Staphylococcus sp.) was 2 µg/mL (≈ 1.3 µM), the “MIC Staphylococcus aureus (GC 4545)” value (Staphylococcus sp.) was 1 µg/mL (≈ 0.65 µM) and the “MIC Staphylococcus aureus-SMITH (GC 4543)” value (Staphylococcus sp.) was 1 µg/mL (≈ 0.65 µM). The “MIC Staphylococcus haemolyticus (GC 4546)” value (Staphylococcus sp.) was 1 µg/mL (≈ 0.65 µM), the “MIC Staphylococcus aureus (GC 1131)” value (Staphylococcus sp.; inoculum 5×10^5 CFU/mL, strain GC 1131) was 2 µg/mL (≈ 1.3 µM) and the “MIC Staphylococcus aureus (ATCC 29213)” value (Staphylococcus sp.; strain ATCC 29213) was 1 µg/mL (≈ 0.65 µM). For the same compound, the “MIC Staphylococcus aureus (GC 3051)” value (Staphylococcus sp.; strain GC 3051) was 1 µg/mL (≈ 0.65 µM), the “MIC Staphylococcus aureus (GC 3053)” value (Staphylococcus sp.; strain GC 3053) was 1 µg/mL (≈ 0.65 µM) and the “MIC Staphylococcus aureus (GC 4541)” value (Staphylococcus sp.; strain GC 4541) was 1 µg/mL (≈ 0.65 µM). The “MIC Staphylococcus aureus (GC 4542)” value (Staphylococcus sp.; strain GC 4542) was 1 µg/mL (≈ 0.65 µM), the “MIC Staphylococcus aureus (GC 4544)” value (Staphylococcus sp.; strain GC 4544) was 2 µg/mL (≈ 1.3 µM) and the “MIC Staphylococcus aureus (GC 4545)” value (Staphylococcus sp.; strain GC 4545) was 1 µg/mL (≈ 0.65 µM). The “MIC Staphylococcus haemolyticus (GC 4546)” value (Staphylococcus sp.; strain GC 4546) was 1 µg/mL (≈ 0.65 µM), the “MIC Coagulase Negative Staphylococcus (GC 4547)” value (Staphylococcus sp.; strain GC 4547) was 1 µg/mL (≈ 0.65 µM) and the “MIC Coagulase Negative Staphylococcus (GC 4548)” value (Staphylococcus sp.; strain GC 4548) was 0.5 µg/mL (≈ 0.325 µM). The “MIC Coagulase Negative Staphylococcus (GC 4549)” value (Staphylococcus sp.; strain GC 4549) was 1 µg/mL (≈ 0.65 µM), the “MIC Coagulase Negative Staphylococcus (GC 4551)” value (Staphylococcus sp.; strain GC 4551) was 1 µg/mL (≈ 0.65 µM) and the “MIC Coagulase Negative Staphylococcus (GC 6257)” value (Staphylococcus sp.; strain GC 6257) was 0.5 µg/mL (≈ 0.325 µM). The “MIC Staphylococcus aureus-SMITH (GC 4543)” value (Staphylococcus sp.; strain SMITH GC 4543) was 1 µg/mL (≈ 0.65 µM), the median effective dose (ED50), Enterococcus faecalis (GC 6189) [1] was 1.04 mg/kg and the median effective dose (ED50), Staphylococcus aureus-SMITH (GC 4543) [2] was 0.26 mg/kg.
